A compilation of properties of binary mixtures (doi:10.1016/j.molliq.2017.07.014)

Experiment: xn = mol fraction of the nth substance listed
Conditions: 101 kPa

CN1CCCC1=O + CCCC[P+](C)(CCCC)CCCC.COS(=O)(=O)[O-]
x2 = 0
Conditions	speed of sound [m/s]	viscosity [mPa·s]
293.15 K	1570	1.9
298.15 K	1566	1.66
303.15 K	1552	1.49
308.15 K	1527	1.38
313.15 K	1518	1.3
318.15 K	1497	1.21
323.15 K	1491	1.15

CCCC[P+](C)(CCCC)CCCC.COS(=O)(=O)[O-] + CN1CCCC1=O
Conditions	speed of sound [m/s]	viscosity [mPa·s]
293.15 K, x1 = 0.056	1574	9.6
293.15 K, x1 = 0.0914	1580	19.6
293.15 K, x1 = 0.1311	1585	28
293.15 K, x1 = 0.1773	1588	43
293.15 K, x1 = 0.2318	1590	67
293.15 K, x1 = 0.2971	1587	100
293.15 K, x1 = 0.3764	1582	138
293.15 K, x1 = 0.4752	1578	188
293.15 K, x1 = 0.6014	1575	290
293.15 K, x1 = 0.7129	1573	440
293.15 K, x1 = 0.8515	1568	580
293.15 K, x1 = 0.9022	1566	630
293.15 K, x1 = 0.9468	1565	680
293.15 K, x1 = 1	1564	730
298.15 K, x1 = 0.0914	1576	13.2
298.15 K, x1 = 0.1311	1580	18
298.15 K, x1 = 0.1773	1584	23.7
298.15 K, x1 = 0.2318	1585	39
298.15 K, x1 = 0.2971	1581	51
298.15 K, x1 = 0.4752	1572	114
298.15 K, x1 = 0.6014	1567	170
298.15 K, x1 = 0.8515	1553	410
298.15 K, x1 = 0.9022	1551	450
298.15 K, x1 = 0.9468	1549	490
303.15 K, x1 = 0.056	1556	2.01
303.15 K, x1 = 0.1311	1564	7.8
303.15 K, x1 = 0.3764	1561	40
303.15 K, x1 = 0.4752	1557	65
303.15 K, x1 = 0.6014	1552	108
303.15 K, x1 = 0.7129	1548	198
303.15 K, x1 = 0.8515	1538	300
303.15 K, x1 = 1	1530	380
308.15 K, x1 = 0.056	1536	2.01
308.15 K, x1 = 0.0914	1540	2.5
308.15 K, x1 = 0.1311	1544	3.4
308.15 K, x1 = 0.1773	1548	6.4
308.15 K, x1 = 0.2318	1549	8.9
308.15 K, x1 = 0.2971	1546	13.9
308.15 K, x1 = 0.3764	1542	20.5
308.15 K, x1 = 0.4752	1539	31
308.15 K, x1 = 0.6014	1536	67
308.15 K, x1 = 0.7129	1533	131
308.15 K, x1 = 0.8086	1528	192
308.15 K, x1 = 0.8515	1524	221
308.15 K, x1 = 0.9022	1522	245
308.15 K, x1 = 0.9468	1519	270
308.15 K, x1 = 1	1514	290
313.15 K, x1 = 0.0914	1536	2.21
313.15 K, x1 = 0.1311	1539	3.2
313.15 K, x1 = 0.2318	1542	6.8
313.15 K, x1 = 0.2971	1539	12.1
313.15 K, x1 = 0.3764	1535	15.2
313.15 K, x1 = 0.4752	1531	17.7
313.15 K, x1 = 0.6014	1526	45
313.15 K, x1 = 0.7129	1522	95
313.15 K, x1 = 0.8086	1517	144
313.15 K, x1 = 0.8515	1515	166
313.15 K, x1 = 0.9022	1509	186
313.15 K, x1 = 0.9468	1507	201
313.15 K, x1 = 1	1499	217
318.15 K, x1 = 0.056	1511	1.1
318.15 K, x1 = 0.0914	1518	2.5
318.15 K, x1 = 0.1311	1522	4.5
318.15 K, x1 = 0.1773	1523	6.4
318.15 K, x1 = 0.2971	1521	10.2
318.15 K, x1 = 0.3764	1518	12.1
318.15 K, x1 = 0.4752	1515	12.3
318.15 K, x1 = 0.6014	1511	32
318.15 K, x1 = 0.8515	1502	128
318.15 K, x1 = 0.9022	1498	144
318.15 K, x1 = 0.9468	1495	159
318.15 K, x1 = 1	1486	169
323.15 K, x1 = 0.056	1506	1.11
323.15 K, x1 = 0.1311	1517	3.8
323.15 K, x1 = 0.1773	1518	5.7
323.15 K, x1 = 0.2318	1518	10.1
323.15 K, x1 = 0.2971	1515	11.1
323.15 K, x1 = 0.3764	1512	13.1
323.15 K, x1 = 0.4752	1508	13.2
323.15 K, x1 = 0.7129	1499	59
323.15 K, x1 = 0.8086	1495	88
323.15 K, x1 = 0.8515	1491	103
323.15 K, x1 = 0.9022	1488	116
323.15 K, x1 = 0.9468	1484	124
323.15 K, x1 = 1	1472	133
